Measured values taken from PubChem BioAssay (NCI).
Values joined by “and” are separate entries in the source; they are usually repeats but may differ in a detail not shown here. Equal values may be shown once.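 Values below derive from 48-hour exposures of cells grown in 96-well plates, with endpoints linearly interpolated between the two concentrations bracketing the appropriate inhibition level. Here, GI50 denotes the concentration required for 50% inhibition of growth. TGI marks complete inhibition of growth.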

Tests used:
Assay in all cases: growth of human tumour cells (NCI), 48 h
[1] = system: SK-MEL-28 melanoma
[2] = system: BT-549 breast
[3] = system: MDA-MB-435
[4] = system: HCC-2998 colon
[5] = system: UACC-62 melanoma
[6] = system: RPMI-8226 leukemia
[7] = system: EKVX NSCLC
[8] = system: KM12 colon

SMILES	GI50 [1]	TGI [1]	GI50 [2]	TGI [2]	GI50 [3]	TGI [3]	GI50 [4]	TGI [4]	GI50 [5]	TGI [5]	TGI [6]	GI50 [7]	TGI [7]	GI50 [8]	TGI [8]	GI50 [6] [µM]
CCc1nc(C(N)=O)c(Nc2ccc(N3CCC(N4CCN(C)CC4)CC3)c(OC)c2)nc1NC1CCOCC1	5.04 µM and 0.641 µM and 3.51 µM	21.2 µM and > 2.91 µM and 19.1 µM	2.61 µM and 0.521 µM and 3.56 µM	14.7 µM and > 2.84 µM and 17.3 µM	3.23 µM and 0.511 µM and 3.96 µM	20.7 µM and > 6.91 µM and 20.8 µM	8.08 µM and 1.4 µM and 8.55 µM	22.2 µM and > 3.14 µM and 23.5 µM	1.53 µM and 0.527 µM and 1.56 µM	16.9 µM and > 10 µM and 16.4 µM	30.8 µM and > 2.71 µM and 36.4 µM	0.83 µM and 0.375 µM and 0.727 µM	18.2 µM and > 4.97 µM and 19 µM	0.0933 µM and 0.0338 µM and 0.0649 µM	12.8 µM and > 10 µM and 12 µM	
COc1cccc2c(=O)c3c(sc12)c(N1CCNCC1)nc1ccccc13	1.86 µM	3.4 µM	13.3 µM	27.5 µM	1.76 µM	3.23 µM	1.7 µM	3.26 µM	1.73 µM	3.19 µM	5.8 µM	1.62 µM	3.17 µM	1.79 µM	3.41 µM	2.39
CCn1c(SCc2ccc(C)cc2)nnc1-c1nn(-c2ccc(Cl)cc2Cl)c(-c2ccc(Cl)cc2)c1C	3.11 µM	15.3 µM	1.79 µM	5.75 µM	2.85 µM	11.5 µM	2.35 µM	13.2 µM	2.02 µM	10.6 µM	3.05 µM	2.88 µM	13 µM	1.04 µM	6.31 µM	0.464
CCCCON(OC(=O)c1ccc2ccc3cccc4ccc1c2c34)C(C)=O	27.1 µM	81.7 µM	19.2 µM	42.7 µM	22.3 µM	50.4 µM	38.5 µM	> 100 µM	21.5 µM	47.2 µM	80.4 µM	27.3 µM	> 100 µM	28.8 µM	> 100 µM	25.5
O=C(O)C1C(Br)(c2ccccc2)C1(Br)c1ccccc1 (stereo not drawn)		52.6 µM		49.5 µM		> 100 µM		53.7 µM		64.3 µM	74.1 µM		> 100 µM		> 100 µM	
ClCC[N+]12CC[N+](CCCl)(CC1)C2		> 100 µM		> 100 µM		> 100 µM		> 100 µM		> 100 µM	> 100 µM		> 100 µM		> 100 µM	
CC/C=C\C[C@H]1C/C=C2/C(=O)C=C[C@@H]2C/C=C\CCCC(=O)O1	0.791 µM	3.07 µM	0.674 µM	3.22 µM	0.37 µM	4.08 µM	1.76 µM	3.22 µM	0.573 µM	2.37 µM	4.03 µM	2.04 µM	5.89 µM	0.94 µM	4.44 µM	0.352
CC1=C(O)C(=O)C=C2C1=CC=C1[C@@]2(C)CC[C@@]2(C)[C@@H]3C[C@](C)(C(=O)O)CC[C@]3(C)CC[C@]12C		0.0345 µM		0.0347 µM		0.157 µM		0.155 µM		0.0669 µM	0.0585 µM		0.174 µM		0.412 µM	
Nc1nc(F)nc2c1ncn2C1OC(CO)C(O)C1O (stereo not drawn)	> 100 µM	> 100 µM		> 100 µM	17.1 µM	> 100 µM	5.09 µM	> 100 µM	89.8 µM	> 100 µM	> 100 µM		> 100 µM		> 100 µM	
CCOc1cc(C(C)(C)C)ccc1C1=N[C@@](C)(c2ccc(Cl)cc2)[C@@](C)(c2ccc(Cl)cc2)N1C(=O)N1CCN(CCCS(C)(=O)=O)CC1	6.1 µM	19.3 µM	2.76 µM	15.1 µM	5.21 µM	19.4 µM	2.51 µM	6.95 µM	0.708 µM	6.41 µM	> 100 µM	4.3 µM	23.7 µM	11.4 µM	28 µM	3.13
Cc1ccc2[nH]c(O)c(N=Nc3ccc(S(N)(=O)=O)cc3)c2c1	24.4 µM	> 25 µM	9.88 µM	> 18.4 µM	15.5 µM	> 25 µM	14.8 µM	> 25 µM	> 23.7 µM	> 25 µM	> 25 µM	> 25 µM	> 25 µM	4.17 µM	> 25 µM	> 25
CN(C)C(=O)[C@H](O)[C@H](Cc1ccccc1)NC(=O)c1cc2cc(Cl)ccc2[nH]1	19 µM	54.5 µM	22.8 µM	72.1 µM	22.9 µM	70.1 µM	16.3 µM	38.1 µM	13.5 µM	32.7 µM	66.6 µM	25.7 µM	> 100 µM	27.2 µM	> 87.7 µM	19.5
C[C@H](O)C(=O)N1CCC(CCn2c(Sc3cc4c(cc3Br)OCO4)nc3c(N)ncnc32)CC1	1.49 µM	> 100 µM	1.93 µM	> 100 µM	0.577 µM	> 100 µM	0.867 µM	> 43.3 µM	0.862 µM		> 100 µM	4.11 µM	> 100 µM	0.424 µM	9.86 µM	4.19
COc1cc(NC(C)CCCN)c2nccc(C)c2c1 (stereo not drawn)		35.3 µM		56.7 µM		30.4 µM		38.7 µM		35.8 µM	60.7 µM		> 100 µM		32.5 µM	
CC1=C(C(=O)Nc2ccc(F)c(Cl)c2)C(c2cccc(O)c2)NC(=O)N1 (stereo not drawn)	58.9 µM	> 100 µM	67 µM	> 100 µM	59.7 µM	> 100 µM	> 100 µM	> 100 µM	48.7 µM	> 100 µM	> 100 µM	78.1 µM	> 100 µM	61.4 µM	> 100 µM	55.1
CN(C)CCN1C(=O)c2ccc3c4c(ccc(c24)C1=O)C(=O)N(CCN=C=S)C3=O	0.0839 µM	0.209 µM	0.129 µM	0.297 µM	0.0585 µM	0.249 µM	0.172 µM	0.381 µM	0.071 µM	0.211 µM	0.197 µM	0.396 µM	1.5 µM	0.0415 µM	0.173 µM	0.0318
CCSc1nc(SCC)c2cn[nH]c2n1	64.6 µM	> 100 µM	37.5 µM	> 100 µM	49.6 µM	> 100 µM	35.6 µM	> 100 µM	25.6 µM	92.7 µM	> 100 µM	18.9 µM	> 100 µM	42 µM	> 100 µM	40.2
O=c1c2ccccc2c(=O)c2c1[nH]c1c(-c3ccccc3)c(-c3ccccc3)c(=O)c12	3.51 µM	14.3 µM	2.09 µM	4.69 µM	3.24 µM	9.42 µM	2.09 µM	5.05 µM	1.72 µM	3.38 µM	12 µM	3.2 µM	11.8 µM	2.3 µM	6.34 µM	2.07
O=S(=O)(Nc1cc(Sc2cccc3cccnc23)c(O)c2ccccc12)c1ccccc1	0.801 µM	5.57 µM	2.9 µM	16 µM	2.01 µM	12.6 µM	4.77 µM	19.1 µM	1.49 µM	4.33 µM	7.9 µM	1.01 µM	8.55 µM	2.03 µM	16.5 µM	2.38
Cc1ccc(-c2nc3ccc(Cl)cc3c(=O)n2N2C(=O)CSC2c2ccccc2Cl)cc1 (stereo not drawn)	20.6 µM	> 100 µM	> 100 µM	> 100 µM	> 100 µM	> 100 µM	> 100 µM	> 100 µM	25.8 µM	> 100 µM	> 100 µM	4.15 µM	> 100 µM	> 100 µM	> 100 µM	> 100
O=C(CCC1OCCO1)Nc1cc(NCc2ccccc2)ccc1OCc1ccccc1		> 100 µM		> 100 µM		63.9 µM		> 100 µM		> 100 µM	> 100 µM		65.5 µM		97.9 µM	
ClCc1cccc(Cn2cnc3nc(Cl)nc(Cl)c32)c1	0.503 µM	1.13 µM	0.487 µM	1.75 µM	1.65 µM	3.16 µM	1.52 µM	2.9 µM	1.02 µM	2.22 µM	4.15 µM	0.84 µM	2.2 µM	16.7 µM	35.4 µM	1.72
COc1cc(C(=O)c2cc(C)c3[nH]c4ccc(C)cc4c3c2C)cc(OC)c1OC	1.64 µM	> 100 µM	< 0.01 µM	2.45 µM	< 0.01 µM	0.136 µM	< 0.01 µM	> 100 µM	< 0.01 µM	> 100 µM	> 100 µM	< 0.01 µM	> 100 µM	< 0.01 µM	> 21.6 µM	< 0.01
Br[C](Br)(Br)[Hg][c]1ccccc1	14.3 µM	27.8 µM	17.2 µM	31.1 µM	16.1 µM	30 µM	14.4 µM	27.7 µM	16.4 µM	38.2 µM	70.6 µM	22 µM	37.7 µM	15.6 µM	29.4 µM	18.9
